Results reported in patent US9403758B2, “Antibacterial agents” (Achaogen, Inc., priority 2012, dated 2016).
Converted amounts (≈) assume the structure as drawn.

What was measured:
Type in all cases: cell-based
[1] = tested on: Klebsiella pneumonia ATCC43816; assay: MIC broth microdilution, Klebsiella pneumonia ATCC43816 (AKPN); conditions: Klebsiella pneumoniae, 35° C., 18-24 hr, read-out: Minimum Inhibitory Concentrations (MICs) AKPN
Method: (§1) Bacterial isolates were cultivated from −70° C. frozen stocks by overnight passages at 35° C. in ambient air on Mueller-Hinton agar (Beckton Dickinson, Franklin Lakes, N.J.). Clinical isolates tested were obtained from various geographically diverse hospitals in the US and abroad (Focus Diagnostics, Herndon, Va. and JMI, North Liberty, Iowa). Quality control strains were from the American Type Culture Collection (ATCC; Rockville, Md.).
(§2) Minimum Inhibitory Concentrations (MICs) were determined by the broth microdilution method in accordance with the Clinical and Laboratory Standards Institute (CLSI) guidelines. In brief, organism suspensions were adjusted to a 0.5 McFarland standard to yield a final inoculum between 3×10^5 and 7×10^5 colony-forming units (CFU)/mL. Drug dilutions and inocula were made in sterile, cation adjusted Mueller-Hinton Broth (Beckton Dickinson). An inoculum volume of 100 μL was added to wells containing 100 μL of broth with 2-fold serial dilutions of drug. All inoculated microdilution trays were incubated in ambient air at 35° C. for 18-24 hr. Following incubation, the lowest concentration of the drug that prevented visible growth (OD600 nm<0.05) was recorded as the MIC. Performance of the assay was monitored by the use of laboratory quality-control strains and levofloxacin, a compound with a defined MIC spectrum, in accordance with CLSI guidelines. Typically, compounds of the present invention have MIC values of 0.03-32 μg/mL.

[2] = tested on: Pseudomonas aeruginosa ATCC27853; assay: MIC broth microdilution, Pseudomonas aeruginosa ATCC27853 (APAE); conditions: 35° C., 18-24 hr, read-out: Minimum Inhibitory Concentrations (MICs) APAE
Method: as §1, §2

[3] = tested on: Escherichia coli ATCC25922; assay: MIC broth microdilution, Escherichia coli ATCC25922 (AECO); conditions: 35° C., 18-24 hr, read-out: Minimum Inhibitory Concentrations (MICs) AECO
Method: as §1, §2

| SMILES | MIC [1] [µg/mL] | MIC [2] [µg/mL] | MIC [3] [µg/mL] |
| --- | --- | --- | --- |
| O=C(NO)c1cc(-c2ccc(C#CC#C[C@@H]3C[C@H]3CO)cc2)ccn1 (relative stereo) [Compound 2, N-hydroxy-4-(4-(((trans)-2-(hydroxymethyl)cyclopropyl)buta-1,3-diynyl)phenyl)picolinamide] | 8 to 16 (≈ 24.1 to 48.1 µM) | 8 to 16 (≈ 24.1 to 48.1 µM) | ≤ 1 |
| CC(CCc1ccc(C#CC#C[C@H]2C[C@@H]2CO)cc1)(C(=O)NO)S(C)(=O)=O (relative stereo) [Compound 9, N-hydroxy-4-(4-(((trans)-2-(hydroxymethyl)cyclopropyl)buta-1,3-diynyl)phenyl)-2-methyl-2-(methylsulfonyl)butanamide] | 1 to 8 (≈ 2.57 to 20.5 µM) | ≤ 1 | ≤ 1 |
| C[S+]([O-])C(C)(C)[C@H](NC(=O)c1ccc(C#CC#C[C@H]2C[C@@H]2CO)cc1)C(=O)NO (stereo in doubt) [Compound 4, N-((2R)-1-(hydroxyamino)-3-methyl-3-(methylsulfinyl)-1-oxobutan-2-yl)-4-(((trans)-2-(hydroxymethyl)cyclopropyl)buta-1,3-diynyl)benzamide] | 8 to 16 (≈ 19.2 to 38.4 µM) | ≤ 1 | ≤ 1 |
| CC(C)(N)[C@H](NC(=O)c1ccc2cc(C#CC3C[C@@H]3CO)ccc2c1)C(=O)NO (stereo partly drawn) [Compound 6, N—((S)-3-amino-1-(hydroxyamino)-3-methyl-1-oxobutan-2-yl)-6-(((trans)-2-(hydroxymethyl)cyclopropyl)ethynyl)-2-naphthamide] | 8 to 16 (≈ 20.2 to 40.5 µM) | ≤ 1 | 1 to 8 (≈ 2.53 to 20.2 µM) |
| CC(C)(N)[C@H](NC(=O)c1cc2ccc(C#CC3C[C@H]3CO)cc2s1)C(=O)NO (stereo partly drawn) [Compound 7, N—((S)-3-amino-1-(hydroxyamino)-3-methyl-1-oxobutan-2-yl)-6-(((trans)-2-(hydroxymethyl)cyclopropyl)ethynyl)benzo[b]thiophene-2-carboxamide] | 8 to 16 (≈ 19.9 to 39.9 µM) | 1 to 8 (≈ 2.49 to 19.9 µM) | 1 to 8 (≈ 2.49 to 19.9 µM) |

Now from value to compound:

| MIC [1] [µg/mL] | MIC [2] [µg/mL] | MIC [3] [µg/mL] | SMILES |
| --- | --- | --- | --- |
| ≤ 1 | 8 to 16 (≈ 20.9 to 41.7 µM) | ≤ 1 | O=C(NO)c1cc(-c2ccc(C#CC#C[C@@H]3C[C@H]3CO)cc2)nc2ccncc12 (relative stereo) [Compound 1, N-hydroxy-2-(4-(((trans)-2-(hydroxymethyl)cyclopropyl)buta-1,3-diynyl)phenyl)-1,6-naphthyridine-4-carboxamide] |
| ≤ 1 | ≤ 1 | ≤ 1 | CSC(C)(C)[C@H](NC(=O)c1ccc(C#CC#C[C@H]2C[C@@H]2CO)cc1)C(=O)NO (stereo in doubt) [Compound 3, N—((R)-1-(hydroxyamino)-3-methyl-3-(methylthio)-1-oxobutan-2-yl)-4-(((trans)-2-(hydroxymethyl)cyclopropyl)buta-1,3-diynyl)benzamide] |
| ≤ 1 | ≤ 1 | ≤ 1 | CC(C)([C@H](NC(=O)c1ccc(C#CC#C[C@H]2C[C@@H]2CO)cc1)C(=O)NO)S(C)(=O)=O (stereo in doubt) [Compound 5, N—((R)-1-(hydroxyamino)-3-methyl-3-(methylsulfonyl)-1-oxobutan-2-yl)-4-(((trans)-2-(hydroxymethyl)cyclopropyl)buta-1,3-diynyl)benzamide] |
| ≤ 1 | ≤ 1 | ≤ 1 | CNC(=O)C(NC(=O)c1ccc(C#CC#C[C@@H]2C[C@H]2CO)cc1)C(=O)NO (stereo partly drawn) [Compound 8] |
